Measured values taken from ChEMBL document CHEMBL4825757, “Optimization of 4,6-Disubstituted Pyrido[3,2-d]pyrimidines as Dual MNK/PIM Inhibitors to Inhibit Leukemia Cell Growth” (J Med Chem, 2021).

Assays:
[1] = molecular target: MAP kinase-interacting serine/threonine-protein kinase 1 (Homo sapiens, UniProt Q9BUB5); experiment: Inhibition of wild type human full length MKN1 (M1 to L424) expressed in mammalian expression system at 1 uM by Kinomescan method relative to control
[2] = Toxicity in NOD/SCID mouse xenografted with human MOLM-13 cells assessed as abnormal changes in spleen at 5 to 10 mg/kg, ip daily for 2 weeks by hematoxylin-eosin staining based histological analysis; assay type: organism-based; conditions: in vivo, 336 h, dose 5-10 mg/kg
[3] = Drug concentration in Sprague Dawley rat at 2 mg/kg, iv measured after 24 hrs; assay type: ADME, organism-based; conditions: in vivo, read-out: Ct
[4] = Cmax in Sprague Dawley rat at 10 mg/kg, po measured after 24 hrs; assay type: ADME, organism-based; set-up: route oral, time 24 hrs, dose 10 mg/kg; conditions: in vivo
[5] = Tmax in Sprague Dawley rat at 2 mg/kg, iv measured after 24 hrs; assay type: ADME, organism-based; conditions: in vivo
[6] = AUC (0 to infinity) in Sprague Dawley rat at 2 mg/kg, iv measured after 24 hrs; assay type: ADME, organism-based; set-up: route intravenous, time 24 hrs, dose 2 mg/kg; conditions: in vivo

Chain of MAP kinase-interacting serine/threonine-protein kinase 1 (Q9BUB5 whole entry, looked up): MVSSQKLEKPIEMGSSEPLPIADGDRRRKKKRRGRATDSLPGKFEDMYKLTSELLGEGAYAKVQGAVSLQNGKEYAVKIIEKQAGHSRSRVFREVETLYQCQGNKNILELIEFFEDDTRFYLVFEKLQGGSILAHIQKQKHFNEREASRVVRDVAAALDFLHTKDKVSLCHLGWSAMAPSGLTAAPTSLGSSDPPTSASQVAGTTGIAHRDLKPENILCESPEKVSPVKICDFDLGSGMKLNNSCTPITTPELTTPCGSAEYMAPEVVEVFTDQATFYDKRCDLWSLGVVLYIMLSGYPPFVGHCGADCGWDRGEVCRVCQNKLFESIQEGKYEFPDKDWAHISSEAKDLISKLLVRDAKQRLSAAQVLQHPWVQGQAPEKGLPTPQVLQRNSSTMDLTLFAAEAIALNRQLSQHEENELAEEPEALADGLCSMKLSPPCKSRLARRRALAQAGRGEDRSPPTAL

- inhibition [1]: 100%
- concentration at 24 h [3]: 765 ng/mL
- Cmax [4]: 224 ng/mL
- Tmax [5]: 4.98 min
- AUC(0-inf) [6]: 1720 ng·h/mL
SMILES: CC(C)Oc1cc(F)ccc1Nc1ncnc2ccc(-c3ccc(C(=O)N4CCNCC4)cc3)nc12
- Activity [2]: Non-Toxic
